From patent publication US20250346643A1, “TROPOMYOSIN KINASE RECEPTOR (TRK) LIGANDS AS THERAPEUTICS TO SUPPORT LIVER REGENERATION” (Vanderbilt University, priority 2024, published 2025)

Assays:
[1] = test system: primary mouse hepatocytes; assay: Cell proliferation assay (CellTiter-Glo) in primary mouse hepatocytes; type: cell-based
Description: Primary hepatocyte isolation. Pdgfrb-GFP-negative or H-2Kd mice older than 4 months were anesthetized and cannulated via the portal vein. Livers were perfused with about 25 ml of pre-warmed Liver Perfusion Medium (Gibco, Waltham, MA; 17707-038) followed by about 50 ml Liver Digestion Medium (Gibco, Waltham, MA; 17703-034). Liver capsule was gently teased apart with tweezers and hepatocytes released. Cells were taken up in Hepatocyte Wash Buffer (Gibco, Waltham, MA; 17704-024) and filtered through 100 μm mesh. Cells were then centrifuged for 2 min at 100 g, 4° C. and cell pellet resuspended in ice cold 10 ml DMEM (Gibco, Waltham, MA; 11885-084)/5% FBS. 10 ml of ice cold 100% Percoll®/PBS (GE HealthCare, Chicago, IL; GE17-0891-01) was added for gradient purification and cells centrifuged for 10 min at 200 g, 4° C. Cell pellet was resuspended with 20 ml DMEM/5% FBS and centrifuged for 2 min at 100 g, 4° C. 1-2×10^3 hepatocytes were plated on collagen-coated 96-well plates in DMEM/5% FBS/Pen/Strep. Rat tail collagen I (Gibco, Waltham, MA; A1048301) was used for coating. Cell culture media was changed 3 hours after plating with either serum-free William's E media (Gibco, Waltham, MA) containing Pen/Strep (Gibco, Waltham, MA) or DMEM/5% FBS/Pen/Strep. NTF3 (STEMCELL technologies, Vancouver, Canada) was added 1 day after plating at a final concentration of 20 ng/ml and primary hepatocytes cultured for 3 days with NTF3 until analysis.
Cell proliferation assays. Primary mouse hepatocytes, HepG2 or AML 12 cells were grown in opaque-walled 96-well plates. NTF3 (final concentration 20 ng/ml) (STEMCELL Technologies, Vancouver, Canada; cat. 78074) and/or Loxo-195 (final concentration 5 nM) (Selleckchem, Houston, TX; S8636) were added into complete growth media without L-glutamine. Primary mouse hepatocytes were also grown in serum-free William's E media without supplements. Cells were analyzed by CellTiter-Glo® (Promega G7570, Madison, WI) which detects the number of viable cells on day 0 to day 5 by on detection systems GloMax® (Promega) or Bioteck Synergy H1 (Agilent, Santa Clara, CA). Mouse recombinant HGF (Abcam, Cambridge, UK; ab281797) was added to cell culture media at a final concentration 5 ng/ml. TRKB inhibitor ANA-12 (Selleckchem, Houston, TX; S7745) was diluted in DMSO (10 mM stock solution) and added to cell culture media at a final concentration of 10 nM.
Primary mouse hepatocyte isolation. Mice were anesthetized and cannulated via the portal vein. Livers were perfused with ˜25 ml of prewarmed liver perfusion medium (Gibco, Waltham, MA; 17707-038) followed by ˜50 ml of liver digestion medium (Gibco, Waltham, MA; 17703-034). The liver capsule was gently teased apart with tweezers, and hepatocytes were released. Cells were taken up in Hepatocyte Wash Buffer (Gibco, Waltham, MA; 17704-024) and filtered through a 100-μm mesh. Cells were then centrifuged for 2 min at 100 g, 4° C., and the cell pellet was resuspended in 10 ml of ice-cold DMEM (Gibco, Waltham, MA; 11885-084)/5% FBS. […] of ice-cold 100% Percoll®/PBS (GE HealthCare, Chicago, IL; GE17-0891-01) were added for gradient purification, and cells were centrifuged for 10 min at 200 g, 4° C. The cell pellet was resuspended with 20 ml of DMEM/5% FBS and centrifuged for 2 min at 100 g, 4° C. A total of 1×10^3 to 2×10^3 hepatocytes were plated on collagen-coated 96-well plates in DMEM/5% FBS/Pen/Strep. Rat tail collagen I (Gibco, Waltham, MA; A1048301) was used for coating. Cell culture media were changed 3 hours after plating with either serum-free William's E media (Gibco, Waltham, MA) containing Pen/Strep (Gibco, Waltham, MA) or DMEM/5% FBS/Pen/Strep. […]

[2] = test system: hepatocytic differentiated human ductal organoids; assay: EdU incorporation in hepatocytic differentiated human ductal organoids (HDO); type: cell-based; conditions: co-incubation with taletrectinib 10 nM (FIG. 19C-D)
Description: (§1) Human ductal organoids. The normal human liver tissue was obtained through the Cooperative Human Tissue Network (CHTN) at Vanderbilt University Medical Center. The liver was cut into very small pieces in liver digestion medium (Gibco, Waltham, MA; 17703-034). The cell suspension was filtered through a 100-μm cell strainer. The flow through was then centrifuged for 2 min at 100 g, 4° C., and the cell pellet resuspended in ice-cold DMEM (Gibco, Waltham, MA; 11885-084, supplemented by 5% FBS) and centrifuged for 2 min at 300 g. The cell pellet was gently resuspended in Matrigel® (Corning, Corning, NY; 356231) and a […] dome plated in a 24-well plate. The plate was incubated for 10-15 min at 37° C. After solidifying, complete HepatiCult™ Organoid Initiation Medium (OIM) (STEMCELL Technologies, Vancouver, Canada; 100-0384) was added. For passaging, the Matrigel dome was dissociated using TrypLE (Thermo Fisher Scientific, Waltham, MA; 12604013) and incubated at 37° C. for 5 mins. Organoids were washed by resuspending in advanced DMEM/F12 and consecutive resuspension of the organoid pellet. Organoids were resuspended at a 1:10 dilution in Matrigel® and cultured in complete HepatiCult™ Organoid Growth Medium (OGM) (STEMCELL Technologies, Vancouver, Canada; 100-0385) for organoid expansion. For hepatocytic differentiation of hepatic ductal organoids, culture medium was changed to complete HepatiCult™ Organoid Differentiation Medium (ODM) (STEMCELL Technologies, 100-0383) 4 days after passaging. Vehicle, NTF3, BDNF, HGF (20 ng/ml final concentration) or Taletrectinib (Fisher Scientific, Waltham, MA; 502030245, final concentration 10 nM) or torin2 (Fisher Scientific, Waltham, MA; s2817, final concentration 25 nM) were diluted in William's E (without L-glutamine) and added to organoids.
EdU incorporation and imaging in HDO and mpPHH. A chamber slide was pre-chilled on ice and coated with Matrigel®. Chamber slide was then incubated for 3 min at 37° C. to solidify and organoids plated in 0.02% Matrigel®/complete media into coated chamber slides. Organoids were grown in complete organoid growth media (OGM) for approximately 4 days followed by incubation in organoid differentiation media (ODM) for another 4 days. Organoids were changed to William's E medium 1 day prior to experiment. Vehicle or NTF3, BDNF, HGF (20 ng/ml final concentration each) or Taletrectinib (Fisher Scientific, Waltham, MA; 502030245, final concentration 10 nM) were diluted in William's E (without L-glutamine) and added to organoids. CLICK-iT™ EdU (EdU final concentration […] incubated together with the vehicle, NTF3, BDNF or HGF). After 6 hours, organoids were fixed with 4% paraformaldehyde and permeabilized with 0.5% Triton-X 100. Further processing was performed according to CLICK-ITT EdU manufacturer's instructions. mpPHHs were seeded on collagen coated chamber slides and grown in complete hepatocyte medium (Lonza, Basel, Switzerland). Prior to EdU incorporation assays, mpPHHs were cultured in William's E medium. Vehicle or NTF3, BDNF, HGF (20 ng/ml final concentration each) or Taletrectinib (Fisher Scientific, Waltham, MA; 502030245, final concentration 10 nM) were diluted in William's E (without L-glutamine) and added to mpPHHs. Organoids were imaged in PBS in chamber slides, mpHHs were mounted with fluoromount. Five to fifteen images of random high-power fields were obtained per experiment per treatment and EdU+/Hoechst 33342+ nuclei versus all Hoechst 33342+ nuclei quantified.

mTORC1 = assay: Immunoblotting of HDOs for P-S6RP and P-P70S6K (mTORC1 activation); type: cell-based, human
Description: as §1
Immunoblotting. HDOs and mpPHH were homogenized in RIPA buffer containing proteinase inhibitors (Roche, Basel, Switzerland; cOmplete™ Mini protease inhibitor, 2 tab/10 ml buffer) and 1×HALT phosphatase inhibitors (Thermo Fisher Scientific, Waltham, MA; catalog no. 78428). Lysates were sonicated and then centrifuged for 10 min at 18,800 g. Protein concentration of supernatants was determined by Direct Detect Spectrophotometer (MilliporeSigma, Burlington, MA). HDOs were treated with growth factors as described above. Lyophilized NTF3 was solubilized with sterile-filtered PBS supplemented with 0.1% BSA, aliquoted, and stored at −80° C. until use. […] HDOs and mpPHH were collected on ice in PBS and centrifuged for 10 s, and the cell pellet was homogenized in RIPA buffer containing inhibitors (Roche, Basel, Switzerland; cOmplete™ Mini protease inhibitor, 1×HALT phosphatase inhibitors, Thermo Fisher Scientific, Waltham, MA; catalog no. 78428). Cell lysates were sonicated and centrifuged for 10 min at 18,800 g. The protein concentration of supernatants was determined by a Direct Detect® spectrophotometer (MilliporeSigma, Burlington, MA). For immunoblot analysis, 10 to 50 μg of protein diluted in […] sample buffer (Invitrogen, Waltham, MA) were analyzed per SDS-polyacrylamide gel electrophoresis (NuPAGE™, Invitrogen, Waltham, MA) using Mops buffer or MES buffer (Invitrogen, Waltham, MA). […] Semi-quantitative band densitometry was performed using ImageJ software (version 1.53).

**Q.** Which “cell proliferation, comparison of NTF3, HGF, BDNF and NAS” value ([1]; BDNF and HGF 20 ng/ml, NAS 500 nM (FIG. 16E)) does the source give for `CC(=O)NCCc1c[nH]c2ccc(O)cc12` [NAS, N-Acetyl-5-hydroxytryptamine, reference compound] here?
**A.** induce proliferation to a similar extent

**Q.** For `C[C@@H](N)COc1ccc(-c2cnc3ccc(N[C@H](C)c4cccc(F)c4)nn23)cc1` [taletrectinib, reference compound], which “effect on NTF3-induced increase of EdU+ cells” value [2] is on record?
**A.** decreased

**Q.** Which “phosphorylation of P-p70S6 kinase and P-S6 ribosomal protein (S6RP)” value (mTORC1; HDO, serum free and glutamine free William's E medium (FIG. 20A-C)) does the source give for insulin: a known activator of mTORC1 here?
**A.** significantly increased phosphorylation

**Q.** Which “phosphorylated S6rp (Ser240/244)” value (mTORC1; HDOs cultured in glutamine free media, coincubation (FIG. 18G), Torin2 25 nM) does the source give for `NC(=O)CC[C@H](N)C(=O)O` [glutamine] here?
**A.** decreased phosphorylated S6rp

**Q.** `O=C(Nc1ccccc1C(=O)NC1CCCCNC1=O)c1cc2ccccc2s1` (stereo not drawn) [ANA-12, reference compound] was tested. Which “inhibition of NTF3-induced cell proliferation” value ([1]; ANA-12 10 nM, NTF3 20 ng/ml, serum-free medium (FIG. 12D)) did it give?
**A.** significantly inhibited

**Q.** And the “effect on BDNF-induced proliferation” value ([1]; co-incubation with ANA-12 10 nM (FIG. 16C))?
**A.** inhibited
